Source: ChEMBL document CHEMBL4507316 (2021)

Key:
[1] = target: Tyrosine-protein kinase ABL2 (Homo sapiens) (UniProt P42684); test: ABL2 ProQinase selectivity panel; conditions: Compound concentration 1.0 uM
[2] = target: Sigma non-opioid intracellular receptor 1 (Homo sapiens) (UniProt Q99720); conditions: Compound concentration 10.0 uM
[3] = target: 5-hydroxytryptamine receptor 2A (Homo sapiens, UniProt P28223); conditions: Compound concentration 10.0 uM
[4] = target: Serine/threonine-protein kinase TAO3 (Homo sapiens) (UniProt Q9H2K8); test: TAOK3 ProQinase selectivity panel; conditions: Compound concentration 1.0 uM
[5] = target: Macrophage colony-stimulating factor 1 receptor (Homo sapiens) (UniProt P07333); test: CSF1-R ProQinase selectivity panel; conditions: Compound concentration 1.0 uM
[6] = target: NUAK family SNF1-like kinase 2 (Homo sapiens) (UniProt Q9H093); test: SNARK ProQinase selectivity panel; conditions: Compound concentration 1.0 uM
[7] = target: Serine/threonine-protein kinase Nek1 (Homo sapiens) (UniProt Q96PY6); test: NEK1 ProQinase selectivity panel; conditions: Compound concentration 1.0 uM
[8] = target: Ephrin type-B receptor 2 (Homo sapiens) (UniProt P29323); test: EPHB2 ProQinase selectivity panel; conditions: Compound concentration 1.0 uM
[9] = target: Calcium/calmodulin-dependent protein kinase kinase 1 (Homo sapiens) (UniProt Q8N5S9); test: CAMKK1 ProQinase selectivity panel; conditions: Compound concentration 1.0 uM
[10] = target: Serine/threonine-protein kinase Sgk3 (Homo sapiens) (UniProt Q96BR1); test: SGK3 ProQinase selectivity panel; conditions: Compound concentration 1.0 uM
[11] = target: Fibroblast growth factor receptor 2 (Homo sapiens) (UniProt P21802); test: FGF-R2 ProQinase selectivity panel; conditions: Compound concentration 1.0 uM
[12] = target: Serine/threonine-protein kinase PLK2 (Homo sapiens) (UniProt Q9NYY3); test: SNK ProQinase selectivity panel; conditions: Compound concentration 1.0 uM
[13] = target: Tyrosine-protein kinase Srms (Homo sapiens) (UniProt Q9H3Y6); test: SRMS ProQinase selectivity panel; conditions: Compound concentration 1.0 uM
[14] = target: Muscarinic acetylcholine receptor M5 (Homo sapiens) (UniProt P08912); conditions: Compound concentration 10.0 uM
[15] = target: Fibroblast growth factor receptor 4 (Homo sapiens) (UniProt P22455); test: FGF-R4 ProQinase selectivity panel; conditions: Compound concentration 1.0 uM
[16] = target: Protein kinase C beta type (Homo sapiens) (UniProt P05771); test: PKC-beta1 ProQinase selectivity panel; conditions: Compound concentration 1.0 uM
[17] = target: Serine/threonine-protein kinase Nek4 (Homo sapiens) (UniProt P51957); test: NEK4 ProQinase selectivity panel; conditions: Compound concentration 1.0 uM
[18] = system: Epidermal growth factor receptor (Homo sapiens), P00533 [L861Q]; test: EGF-R L861Q ProQinase selectivity panel; conditions: Compound concentration 1.0 uM
[19] = target: MAP kinase-interacting serine/threonine-protein kinase 1 (Homo sapiens) (UniProt Q9BUB5); test: MKNK1 ProQinase selectivity panel; conditions: Compound concentration 1.0 uM
[20] = target: Dual specificity protein kinase CLK1 (Homo sapiens) (UniProt P49759); test: CLK1 ProQinase selectivity panel; conditions: Compound concentration 1.0 uM
[21] = target: Serine/threonine-protein kinase PAK 5 (Homo sapiens) (UniProt Q9P286); test: PAK7 ProQinase selectivity panel; conditions: Compound concentration 1.0 uM
[22] = system: Platelet-derived growth factor receptor alpha (Homo sapiens), P16234 [D842V]; test: PDGFR-alpha D842V ProQinase selectivity panel; conditions: Compound concentration 1.0 uM
[23] = target: GABA-A receptor; anion channel (Rattus norvegicus) (UniProt O09028+P15431+P18506+P18508+P19969+P20236+P23574+P23576+P28471+P28473+P30191+P62813+P63079+P63138+Q91ZM7+Q9ES14); conditions: Compound concentration 10.0 uM
[24] = target: Interleukin-1 receptor-associated kinase 4 (Homo sapiens) (UniProt Q9NWZ3); test: IRAK4 ProQinase selectivity panel; conditions: Compound concentration 1.0 uM
[25] = system: Tyrosine-protein kinase ABL1 (Homo sapiens), P00519 [G250E]; test: ABL1 G250E ProQinase selectivity panel; conditions: Compound concentration 1.0 uM
[26] = system: Fibroblast growth factor receptor 3 (Homo sapiens), P22607 [K650E]; test: FGF-R3 K650E ProQinase selectivity panel; conditions: Compound concentration 1.0 uM
[27] = target: SRSF protein kinase 2 (Homo sapiens) (UniProt P78362); test: SRPK2 ProQinase selectivity panel; conditions: Compound concentration 1.0 uM
[28] = target: Phosphorylase b kinase gamma catalytic chain, skeletal muscle/heart isoform (Homo sapiens) (UniProt Q16816); test: PHKG1 ProQinase selectivity panel; conditions: Compound concentration 1.0 uM
[29] = system: Epidermal growth factor receptor (Homo sapiens), P00533 [L858R]; test: EGF-R L858R ProQinase selectivity panel; conditions: Compound concentration 1.0 uM
[30] = target: Mitogen-activated protein kinase 10 (Homo sapiens) (UniProt P53779); test: JNK3 ProQinase selectivity panel; conditions: Compound concentration 1.0 uM
[31] = target: Serine/threonine-protein kinase Sgk2 (Homo sapiens) (UniProt Q9HBY8); test: SGK2 ProQinase selectivity panel; conditions: Compound concentration 1.0 uM
[32] = target: Cyclin-dependent kinase 1/cyclin B (Homo sapiens) (UniProt P06493+P14635+Q8WWL7+O95067); test: CDK1/CycB1 ProQinase selectivity panel; assay type: protein-complex assay; conditions: Compound concentration 1.0 uM
[33] = target: Ephrin type-B receptor 1 (Homo sapiens) (UniProt P54762); test: EPHB1 ProQinase selectivity panel; conditions: Compound concentration 1.0 uM
[34] = target: Serine/threonine-protein kinase Nek7 (Homo sapiens) (UniProt Q8TDX7); test: NEK7 ProQinase selectivity panel; conditions: Compound concentration 1.0 uM
[35] = system: Leucine-rich repeat serine/threonine-protein kinase 2 (Homo sapiens), Q5S007 [R1441C]; test: LRRK2 R1441C ProQinase selectivity panel; conditions: Compound concentration 1.0 uM
[36] = target: Mitogen-activated protein kinase kinase kinase kinase 5 (Homo sapiens) (UniProt Q9Y4K4); test: MAP4K5 ProQinase selectivity panel; conditions: Compound concentration 1.0 uM
[37] = target: NUAK family SNF1-like kinase 1 (Homo sapiens) (UniProt O60285); test: ARK5 ProQinase selectivity panel; conditions: Compound concentration 1.0 uM
[38] = target: Tyrosine-protein kinase Lck (Homo sapiens) (UniProt P06239); test: LCK ProQinase selectivity panel; conditions: Compound concentration 1.0 uM
[39] = target: Serine/threonine-protein kinase PLK3 (Homo sapiens) (UniProt Q9H4B4); test: PLK3 ProQinase selectivity panel; conditions: Compound concentration 1.0 uM
[40] = system: Hepatocyte growth factor receptor (Homo sapiens), P08581 [D1228N]; test: MET D1228N ProQinase selectivity panel; conditions: Compound concentration 1.0 uM
[41] = target: Discoidin domain-containing receptor 2 (Homo sapiens) (UniProt Q16832); test: DDR2 ProQinase selectivity panel; conditions: Compound concentration 1.0 uM
[42] = target: Serine/threonine-protein kinase 16 (Homo sapiens) (UniProt O75716); test: TSF1 ProQinase selectivity panel; conditions: Compound concentration 1.0 uM
[43] = target: Rho-associated protein kinase 2 (Homo sapiens) (UniProt O75116); test: ROCK2 ProQinase selectivity panel; conditions: Compound concentration 1.0 uM
[44] = target: Homeodomain-interacting protein kinase 3 (Homo sapiens) (UniProt Q9H422); test: HIPK3 ProQinase selectivity panel; conditions: Compound concentration 1.0 uM
[45] = target: cGMP-dependent protein kinase 2 (Homo sapiens) (UniProt Q13237); test: PRKG2 ProQinase selectivity panel; conditions: Compound concentration 1.0 uM
[46] = target: Dual serine/threonine and tyrosine protein kinase (Homo sapiens) (UniProt Q6XUX3); test: RIPK5 ProQinase selectivity panel; conditions: Compound concentration 1.0 uM
[47] = target: Epidermal growth factor receptor (Homo sapiens) (UniProt P00533); test: EGF-R wt ProQinase selectivity panel; conditions: Compound concentration 1.0 uM
Chain of Epidermal growth factor receptor (Homo sapiens) (P00533 whole entry): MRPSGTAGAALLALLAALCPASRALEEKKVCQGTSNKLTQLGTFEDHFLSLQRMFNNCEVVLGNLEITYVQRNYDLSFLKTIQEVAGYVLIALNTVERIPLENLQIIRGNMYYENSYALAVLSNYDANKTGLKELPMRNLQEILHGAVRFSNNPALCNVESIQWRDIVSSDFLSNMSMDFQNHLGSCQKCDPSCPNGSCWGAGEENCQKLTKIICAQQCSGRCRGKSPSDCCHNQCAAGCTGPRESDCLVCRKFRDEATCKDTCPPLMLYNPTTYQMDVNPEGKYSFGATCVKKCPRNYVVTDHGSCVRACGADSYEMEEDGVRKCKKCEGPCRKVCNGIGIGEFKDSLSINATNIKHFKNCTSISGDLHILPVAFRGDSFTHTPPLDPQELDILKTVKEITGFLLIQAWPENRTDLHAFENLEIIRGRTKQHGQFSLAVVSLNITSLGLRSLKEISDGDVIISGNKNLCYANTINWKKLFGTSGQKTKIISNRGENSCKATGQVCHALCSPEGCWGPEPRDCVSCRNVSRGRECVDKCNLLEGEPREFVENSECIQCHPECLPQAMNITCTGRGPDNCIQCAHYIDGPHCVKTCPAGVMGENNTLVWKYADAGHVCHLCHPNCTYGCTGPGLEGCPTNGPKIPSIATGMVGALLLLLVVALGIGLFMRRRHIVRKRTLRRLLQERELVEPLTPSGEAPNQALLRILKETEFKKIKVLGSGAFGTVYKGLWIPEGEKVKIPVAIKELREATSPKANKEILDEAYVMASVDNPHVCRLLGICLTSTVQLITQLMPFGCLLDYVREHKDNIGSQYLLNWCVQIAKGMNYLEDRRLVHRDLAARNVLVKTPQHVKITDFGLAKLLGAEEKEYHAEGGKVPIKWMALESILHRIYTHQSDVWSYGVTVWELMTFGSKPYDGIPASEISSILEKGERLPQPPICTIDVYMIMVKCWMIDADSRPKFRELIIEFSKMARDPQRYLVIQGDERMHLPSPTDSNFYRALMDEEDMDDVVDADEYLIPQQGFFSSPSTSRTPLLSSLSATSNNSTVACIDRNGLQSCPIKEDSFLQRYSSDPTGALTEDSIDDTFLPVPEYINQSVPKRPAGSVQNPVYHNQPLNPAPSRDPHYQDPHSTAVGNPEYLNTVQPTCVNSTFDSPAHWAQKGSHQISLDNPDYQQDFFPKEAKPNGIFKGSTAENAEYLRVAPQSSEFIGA

Chain of Phosphorylase b kinase gamma catalytic chain, skeletal muscle/heart isoform (Homo sapiens) (Q16816 whole entry, looked up, canonical isoform): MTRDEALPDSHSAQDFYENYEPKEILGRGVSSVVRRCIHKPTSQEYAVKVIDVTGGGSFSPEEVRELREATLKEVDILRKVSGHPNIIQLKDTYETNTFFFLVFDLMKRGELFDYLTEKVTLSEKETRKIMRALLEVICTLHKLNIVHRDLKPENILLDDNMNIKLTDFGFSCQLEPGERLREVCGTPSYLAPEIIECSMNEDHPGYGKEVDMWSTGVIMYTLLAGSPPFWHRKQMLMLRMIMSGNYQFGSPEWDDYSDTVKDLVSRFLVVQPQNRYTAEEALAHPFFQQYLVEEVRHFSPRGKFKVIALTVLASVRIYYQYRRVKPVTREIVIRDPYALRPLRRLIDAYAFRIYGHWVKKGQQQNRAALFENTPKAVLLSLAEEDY
Chain of Hepatocyte growth factor receptor (Homo sapiens), P08581 [D1228N] (P08581 whole entry D1228N, the tested form may be a part): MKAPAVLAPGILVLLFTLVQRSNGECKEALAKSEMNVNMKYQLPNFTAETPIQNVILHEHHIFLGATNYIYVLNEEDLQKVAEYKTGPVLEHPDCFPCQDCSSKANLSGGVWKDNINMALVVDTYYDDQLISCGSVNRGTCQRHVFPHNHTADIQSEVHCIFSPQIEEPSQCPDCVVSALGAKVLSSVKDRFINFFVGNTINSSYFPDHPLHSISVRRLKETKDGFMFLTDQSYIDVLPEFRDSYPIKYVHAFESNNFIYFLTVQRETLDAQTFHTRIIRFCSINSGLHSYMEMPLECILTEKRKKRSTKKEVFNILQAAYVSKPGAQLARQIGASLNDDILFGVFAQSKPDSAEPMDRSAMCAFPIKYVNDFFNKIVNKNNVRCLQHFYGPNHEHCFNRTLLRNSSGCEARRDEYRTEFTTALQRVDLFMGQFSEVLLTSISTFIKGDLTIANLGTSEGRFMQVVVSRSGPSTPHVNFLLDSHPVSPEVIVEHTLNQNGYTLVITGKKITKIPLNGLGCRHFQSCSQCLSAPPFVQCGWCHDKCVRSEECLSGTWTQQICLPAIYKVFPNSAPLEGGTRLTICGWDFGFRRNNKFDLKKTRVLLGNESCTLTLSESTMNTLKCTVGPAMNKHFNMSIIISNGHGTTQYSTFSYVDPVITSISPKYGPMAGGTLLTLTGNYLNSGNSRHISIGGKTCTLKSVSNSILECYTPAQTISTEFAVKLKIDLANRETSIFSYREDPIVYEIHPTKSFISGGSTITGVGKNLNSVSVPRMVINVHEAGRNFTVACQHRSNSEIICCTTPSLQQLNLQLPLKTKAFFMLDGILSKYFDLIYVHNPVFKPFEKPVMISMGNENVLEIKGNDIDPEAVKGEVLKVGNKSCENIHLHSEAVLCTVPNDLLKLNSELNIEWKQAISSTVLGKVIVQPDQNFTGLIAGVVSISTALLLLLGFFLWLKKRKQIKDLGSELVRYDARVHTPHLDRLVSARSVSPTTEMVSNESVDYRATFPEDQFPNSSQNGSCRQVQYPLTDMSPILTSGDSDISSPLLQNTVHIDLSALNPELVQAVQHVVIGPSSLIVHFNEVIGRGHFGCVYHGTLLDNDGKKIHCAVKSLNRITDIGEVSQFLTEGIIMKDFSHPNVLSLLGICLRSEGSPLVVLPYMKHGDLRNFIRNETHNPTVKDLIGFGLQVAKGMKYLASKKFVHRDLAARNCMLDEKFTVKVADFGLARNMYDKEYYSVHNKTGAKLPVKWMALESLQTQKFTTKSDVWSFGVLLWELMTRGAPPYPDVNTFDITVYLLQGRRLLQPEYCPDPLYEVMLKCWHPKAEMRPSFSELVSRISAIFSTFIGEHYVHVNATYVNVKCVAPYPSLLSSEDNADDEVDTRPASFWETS
Chain of Tyrosine-protein kinase Srms (Homo sapiens) (Q9H3Y6 whole entry): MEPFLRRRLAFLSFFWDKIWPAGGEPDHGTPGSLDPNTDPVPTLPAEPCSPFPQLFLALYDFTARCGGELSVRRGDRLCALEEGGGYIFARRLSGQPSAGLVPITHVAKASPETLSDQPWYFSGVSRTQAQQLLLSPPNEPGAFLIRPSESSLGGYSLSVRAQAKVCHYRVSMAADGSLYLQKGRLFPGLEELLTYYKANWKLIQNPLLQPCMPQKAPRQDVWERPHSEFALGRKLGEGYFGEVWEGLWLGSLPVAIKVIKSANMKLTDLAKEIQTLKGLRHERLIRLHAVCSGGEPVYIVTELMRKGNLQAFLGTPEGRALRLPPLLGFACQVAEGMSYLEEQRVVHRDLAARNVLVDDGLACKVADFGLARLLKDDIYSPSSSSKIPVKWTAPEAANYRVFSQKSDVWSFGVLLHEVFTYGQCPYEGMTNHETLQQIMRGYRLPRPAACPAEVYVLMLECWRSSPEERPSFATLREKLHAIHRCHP
Chain of Mitogen-activated protein kinase 10 (Homo sapiens) (P53779 whole entry): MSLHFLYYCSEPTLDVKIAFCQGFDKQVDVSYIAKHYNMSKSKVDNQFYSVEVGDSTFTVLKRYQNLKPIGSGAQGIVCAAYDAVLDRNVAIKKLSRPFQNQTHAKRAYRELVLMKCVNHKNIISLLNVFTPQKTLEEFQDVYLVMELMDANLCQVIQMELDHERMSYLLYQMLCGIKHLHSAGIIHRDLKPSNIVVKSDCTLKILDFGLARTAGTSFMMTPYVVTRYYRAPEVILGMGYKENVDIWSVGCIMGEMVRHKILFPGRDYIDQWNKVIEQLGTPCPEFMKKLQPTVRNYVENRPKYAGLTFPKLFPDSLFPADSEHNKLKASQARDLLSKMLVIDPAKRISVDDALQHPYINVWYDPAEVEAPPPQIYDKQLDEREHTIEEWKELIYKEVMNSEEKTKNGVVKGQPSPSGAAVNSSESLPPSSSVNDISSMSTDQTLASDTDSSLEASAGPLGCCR
Chain of Discoidin domain-containing receptor 2 (Homo sapiens) (Q16832 whole entry, the tested form may be a part): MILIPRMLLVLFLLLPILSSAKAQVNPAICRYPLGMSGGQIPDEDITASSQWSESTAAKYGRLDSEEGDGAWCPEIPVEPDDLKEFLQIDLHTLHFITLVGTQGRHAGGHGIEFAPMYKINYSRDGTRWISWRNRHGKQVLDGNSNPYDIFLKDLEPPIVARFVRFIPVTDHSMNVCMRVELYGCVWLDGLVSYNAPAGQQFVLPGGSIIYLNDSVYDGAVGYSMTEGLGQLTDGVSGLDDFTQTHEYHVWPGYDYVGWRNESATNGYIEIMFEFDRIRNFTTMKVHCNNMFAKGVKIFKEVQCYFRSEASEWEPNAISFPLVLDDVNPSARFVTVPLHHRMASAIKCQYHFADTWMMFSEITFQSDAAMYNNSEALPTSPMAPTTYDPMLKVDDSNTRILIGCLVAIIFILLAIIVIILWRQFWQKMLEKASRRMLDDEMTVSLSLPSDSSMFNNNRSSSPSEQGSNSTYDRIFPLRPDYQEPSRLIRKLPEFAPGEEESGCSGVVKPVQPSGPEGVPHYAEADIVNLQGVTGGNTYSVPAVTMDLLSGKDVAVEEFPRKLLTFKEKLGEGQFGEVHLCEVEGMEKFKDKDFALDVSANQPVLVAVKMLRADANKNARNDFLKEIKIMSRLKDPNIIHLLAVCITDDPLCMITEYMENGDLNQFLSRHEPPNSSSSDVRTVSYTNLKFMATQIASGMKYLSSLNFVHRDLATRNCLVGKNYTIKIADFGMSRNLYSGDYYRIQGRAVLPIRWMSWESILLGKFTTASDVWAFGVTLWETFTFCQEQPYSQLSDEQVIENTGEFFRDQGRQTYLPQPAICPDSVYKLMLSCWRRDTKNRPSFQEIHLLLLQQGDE
Chain of Sigma non-opioid intracellular receptor 1 (Homo sapiens) (Q99720 whole entry): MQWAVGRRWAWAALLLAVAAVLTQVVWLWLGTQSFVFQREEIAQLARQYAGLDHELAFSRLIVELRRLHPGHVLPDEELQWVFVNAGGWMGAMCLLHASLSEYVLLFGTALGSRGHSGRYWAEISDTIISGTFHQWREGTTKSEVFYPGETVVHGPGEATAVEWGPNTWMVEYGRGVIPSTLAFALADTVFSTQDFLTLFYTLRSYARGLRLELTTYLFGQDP

% Residual activity with Skepinone-L [1]: 99%
inhibition [2]: 48.5%
inhibition [3]: 73.1%
% Residual activity with Skepinone-L [4]: 102%
% Residual activity with Skepinone-L [5]: 106%
% Residual activity with Skepinone-L [6]: 115%
% Residual activity with Skepinone-L [7]: 83%
% Residual activity with Skepinone-L [8]: 91%
% Residual activity with Skepinone-L [9]: 83%
% Residual activity with Skepinone-L [10]: 102%
% Residual activity with Skepinone-L [11]: 125%
% Residual activity with Skepinone-L [12]: 103%
% Residual activity with Skepinone-L [13]: 95%
inhibition [14]: -9.46%
% Residual activity with Skepinone-L [15]: 103%
% Residual activity with Skepinone-L [16]: 103%
% Residual activity with Skepinone-L [17]: 99%
% Residual activity with Skepinone-L [18]: 94%
% Residual activity with Skepinone-L [19]: 69%
% Residual activity with Skepinone-L [20]: 106%
% Residual activity with Skepinone-L [21]: 87%
% Residual activity with Skepinone-L [22]: 97%
inhibition [23]: 8.2%
% Residual activity with Skepinone-L [24]: 104%
% Residual activity with Skepinone-L [25]: 97%
% Residual activity with Skepinone-L [26]: 99%
% Residual activity with Skepinone-L [27]: 101%
% Residual activity with Skepinone-L [28]: 93%
% Residual activity with Skepinone-L [29]: 89%
% Residual activity with Skepinone-L [30]: 33%
% Residual activity with Skepinone-L [31]: 89%
% Residual activity with Skepinone-L [32]: 83%
% Residual activity with Skepinone-L [33]: 116%
% Residual activity with Skepinone-L [34]: 83%
% Residual activity with Skepinone-L [35]: 89%
% Residual activity with Skepinone-L [36]: 84%
% Residual activity with Skepinone-L [37]: 115%
% Residual activity with Skepinone-L [38]: 102%
% Residual activity with Skepinone-L [39]: 99%
% Residual activity with Skepinone-L [40]: 95%
% Residual activity with Skepinone-L [41]: 102%
% Residual activity with Skepinone-L [42]: 94%
% Residual activity with Skepinone-L [43]: 90%
% Residual activity with Skepinone-L [44]: 91%
% Residual activity with Skepinone-L [45]: 94%
% Residual activity with Skepinone-L [46]: 95%
% Residual activity with Skepinone-L [47]: 94%
SMILES: O=C1c2ccc(Nc3ccc(F)cc3F)cc2CCc2ccc(OC[C@H](O)CO)cc21 [Skepinone-L]
